Data: article PMC11765512 (International Journal of Molecular Sciences, 2025)

Tests used:
[1] = test system: S-RBD-ACE2 interaction, AH109 (pAD-S-RBD+pBD-ACE2); type: cell-based, SARS-CoV-2 S-RBD, human ACE2 (in yeast)
[2] = biological target: S-RBD-ACE2 interaction, AH109 (pAD-S-RBD+pBD-ACE2) (UniProt P0DTC2+Q9BYF1); type: cell-based, SARS-CoV-2 S-RBD, human ACE2 (in yeast)

Structure (SMILES)	Difference of MICs among AH109 (pAD-S-RBD+pBD-ACE2) and AH109 (pAD-T+pBD-53) [1] [fold]	MIC against AH109 (pAD-S-RBD+pBD-ACE2) [2] [μg/mL]
O=C(c1ccc(N2CCCCS2(=O)=O)cc1)N1CCN(C(=O)c2ccco2)CC1 [IMB-1C]	2	–
Cc1ccc(N(Sc2ccc(Cl)cc2)C2C=CS(=O)(=O)C2)cc1 (stereo not drawn) [IMB-4A]	2	–
CC(C)CCC[C@@H](C)[C@H]1CC[C@H]2[C@@H]3CC[C@H]4C[C@@H](O[C@@H]5O[C@H](COS(=O)(=O)O)[C@@H](O[C@H]6O[C@H](COS(=O)(=O)O)[C@@H](O[C@H]7O[C@H](COS(=O)(=O)O)[C@@H](O[C@H]8O[C@H](COS(=O)(=O)O)[C@@H](OS(=O)(=O)O)[C@H](OS(=O)(=O)O)[C@H]8OS(=O)(=O)O)[C@H](OS(=O)(=O)O)[C@H]7OS(=O)(=O)O)[C@H](OS(=O)(=O)O)[C@H]6OS(=O)(=O)O)[C@H](OS(=O)(=O)O)[C@H]5OS(=O)(=O)O)CC[C@]4(C)[C@H]3CC[C@]12C [Pixatimod, reference compound]	–	1.56
